From US4233309A, “Novel 1-substituted-3-acylpyrrole derivatives, platelet aggregation inhibitors containing them, as active ingredients, and processes for production of said derivatives” (Teijin Limited, priority 1977, dated 1980) come the findings set out here.

Where two headings read alike, the source gives them in different places.

The subject of data set [1] is biosynthesis of prostaglandins (microsomes of the seminal vesicle of bovine). Put plainly: Inhibitory effect on prostaglandin biosynthesis in vitro (Table 3). In kind it is biochemical. The conditions noted are these: 4 μg/ml sodium arachidonate, bioassay on rat fundus stomach strips. Here is the method:
Sprangue-Dawley rats (male, 180-200 g) were fasted overnight, and killed by blow on the head. The stomach was isolated, and fundus stomach strips were prepared. The smooth muscle strips were perfused with Krebs-Hensleit solution (gassed with 95% O2 +5% CO2 gas) of 37° C. at a rate of […]. The Krebs-Hensleit solution contained 0.1 μg/ml of atropine, 0.1 μg/ml of phenoxybenzamine, 3 μg/ml of propranolol, 0.1 μg/ml of tripelennamine, and 0.2 μg/ml of methylsergide to prevent the effect of smooth muscle contracting substances, and 1 μg/ml of indomethacine to inhibit the biosynthesis of prostaglandin by the smooth muscles. Then, 150 μl of a reaction solution containing biologically synthesized prostaglandin was added to the perfusion solution, and the amount of the biologically synthesized prostaglandin was measured from the contraction of the smooth muscles. The contraction of the smooth muscles was recorded on a recorder using an isotonic transducer.
The reaction solution containing biologically synthesized prostaglandin was prepared in the following manner.
To 0.4 mg/ml of microsomes of the seminal vesicle of bovine were added 5 mM of L-tryptophan, 0.025 μM of bovine hemoglobin and 3 mμ of glutathione as cofactors. The mixture was incubated together with each of the test compounds shown in Table 4 at 37° C. for 2 minutes, and immediately then, 4 μg/ml of sodium arachidonate was added. The mixture was further incubated at 37° C. for 10 minutes, and immediately then, the prostaglandin activity of the reaction solution was measured by bioassay.
The microsomes of the seminal vesicle of bovine had been prepared by suspending microsomes of the seminal vesicle of bovine (a product of Miles Laboratories, Inc.) in a 50 mM Tris.HCl buffer (pH 7.4) using a glass homogenizer, and stored in ice water prior to use.
ID50 denotes the concentration of each test compound required to inhibit the biosynthesis of prostaglandins by 50%.

The next data set in a line: Acute toxicity (Table 6). It counts as in vivo. The conditions noted are these: mouse, in vivo, mice, Litchfield-Wilcoxon, read-out: LD50 (50% lethal dose). The protocol:
(§1) ICR male mice with a body weight of 24 to 27 g (5 to 6 per group) were used. Each test compound was dissolved in propylene glycol in various concentrations, and administered orally (in a volume of 0.1 to 0.05 ml/10 g), subcutaneously (in a volume of 0.1 to 0.05 ml/10 g), or intraperitoneally (in a volume of 0.05 ml/10 g) to the mice. […] The LD50 (50% lethal dose) of each test compound was determined by the Litchfield-Wilcoxon method.
(§2) The denominator indicates the number of mice used, and the numerator, the number of dead mice.

The subject of a further data set is ICR male mice. Put plainly: Acute toxicity (Table 6). To be noted: 10 days. It counts as in vivo. The protocol:
as §1, §2

The term LD50 denotes the dose at which mortality reaches 50%.

For `Cc1cc(C(=O)c2ccccc2)c(C)n1CC(C)O` (stereo not shown) [Compound 102, 2-(3-benzoyl-2,5-dimethylpyrrol-1-yl)-1-methylethanol], the “ID50 (concentration required to inhibit the biosynthesis of prostaglandins by 50%)” value in data set [1] came out at 11.9 µg/mL. Moreover, the 50% lethal dose (LD50) at 240 h in “Acute toxicity (Table 6)” (ip, intraperitoneal) is 110 mg/kg; in “Acute toxicity (Table 6)” (po, peroral) it was more than 4000 mg/kg; in “Acute toxicity (Table 6)” (sc, subcutaneous) it was more than 4000 mg/kg. Also, the “mortality (dead mice / mice used)” value with ICR male mice (intraperitoneal, 62.5 mg/kg) was 0/5; in the data set with ICR male mice (intraperitoneal, 125 mg/kg) it was 4/5; in the data set with ICR male mice (intraperitoneal, 250 mg/kg), 5/5; with ICR male mice (intraperitoneal, 500 mg/kg), 5/5; in the data set on ICR male mice (peroral, 1000 mg/kg), 0/6; with ICR male mice (peroral, 2000 mg/kg) it was 0/6. Moreover, the “mortality (dead mice / mice used)” value in the data set with ICR male mice (peroral, 3000 mg/kg) is given as 0/6; in the data set with ICR male mice (peroral, 4000 mg/kg), 1/6; in the data set on ICR male mice (subcutaneous, 4000 mg/kg) it was 0/5.
